The results in this text go back to ChEMBL document CHEMBL1126851, “Conformationally restrained analogs of sympathomimetic catecholamines. Synthesis, conformational analysis, and adrenergic activity of isochroman derivatives” (J Med Chem, 1993).

In assay [1] the target is T1, Adrenergic receptor alpha-1 (Rattus norvegicus, UniProt P15823+P23944+P43140).
T1 sequence (P15823 whole entry): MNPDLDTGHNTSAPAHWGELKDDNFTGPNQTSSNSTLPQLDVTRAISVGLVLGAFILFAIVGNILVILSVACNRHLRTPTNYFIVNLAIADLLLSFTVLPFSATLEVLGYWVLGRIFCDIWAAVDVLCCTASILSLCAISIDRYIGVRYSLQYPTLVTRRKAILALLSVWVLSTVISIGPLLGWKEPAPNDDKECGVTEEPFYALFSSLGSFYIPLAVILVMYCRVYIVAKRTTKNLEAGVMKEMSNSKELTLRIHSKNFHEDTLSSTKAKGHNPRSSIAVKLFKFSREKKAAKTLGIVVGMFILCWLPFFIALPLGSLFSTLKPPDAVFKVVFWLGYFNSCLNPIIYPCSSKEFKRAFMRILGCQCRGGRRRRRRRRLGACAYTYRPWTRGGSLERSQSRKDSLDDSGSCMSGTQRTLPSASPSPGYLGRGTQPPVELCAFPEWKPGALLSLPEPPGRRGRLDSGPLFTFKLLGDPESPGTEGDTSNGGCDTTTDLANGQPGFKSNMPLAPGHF
T1 sequence (P23944 whole entry): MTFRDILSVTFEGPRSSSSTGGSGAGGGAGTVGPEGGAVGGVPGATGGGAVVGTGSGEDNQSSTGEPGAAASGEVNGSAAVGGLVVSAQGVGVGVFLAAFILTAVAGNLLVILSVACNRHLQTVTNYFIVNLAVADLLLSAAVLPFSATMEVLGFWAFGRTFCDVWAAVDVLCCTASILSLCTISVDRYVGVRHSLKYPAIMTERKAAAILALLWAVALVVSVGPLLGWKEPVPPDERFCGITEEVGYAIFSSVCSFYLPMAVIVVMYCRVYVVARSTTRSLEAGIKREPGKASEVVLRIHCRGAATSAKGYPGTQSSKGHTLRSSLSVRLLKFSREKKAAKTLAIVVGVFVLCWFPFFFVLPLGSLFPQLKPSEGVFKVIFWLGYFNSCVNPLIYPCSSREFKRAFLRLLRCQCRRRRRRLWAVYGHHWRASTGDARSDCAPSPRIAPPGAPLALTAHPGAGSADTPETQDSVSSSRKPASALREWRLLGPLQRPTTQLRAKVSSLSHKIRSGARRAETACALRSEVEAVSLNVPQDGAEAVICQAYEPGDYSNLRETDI
T1 sequence (P43140 whole entry): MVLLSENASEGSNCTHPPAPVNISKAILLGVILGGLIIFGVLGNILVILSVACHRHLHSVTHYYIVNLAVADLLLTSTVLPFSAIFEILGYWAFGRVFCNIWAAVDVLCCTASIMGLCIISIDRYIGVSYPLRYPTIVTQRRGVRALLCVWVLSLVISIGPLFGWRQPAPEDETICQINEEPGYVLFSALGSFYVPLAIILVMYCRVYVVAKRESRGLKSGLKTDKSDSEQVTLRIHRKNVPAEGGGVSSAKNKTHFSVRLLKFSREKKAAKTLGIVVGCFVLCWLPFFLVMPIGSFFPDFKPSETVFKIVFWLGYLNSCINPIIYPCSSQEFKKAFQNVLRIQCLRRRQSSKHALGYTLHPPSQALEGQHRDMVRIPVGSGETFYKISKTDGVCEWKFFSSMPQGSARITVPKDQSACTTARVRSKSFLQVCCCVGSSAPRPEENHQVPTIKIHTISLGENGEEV

Assay [2] has as its target T2, Adrenergic receptor alpha-1 (Rattus norvegicus) (UniProt P15823+P23944+P43140). Description: Intrinsic activity against alpha-1 receptor in isolated rat vas deferens. Format: tissue-based.
The target of assay [3] is T2, Adrenergic receptor alpha-1 (Rattus norvegicus). The assay is described as follows: Tested for alpha adrenergic activity against alpha-1 receptor from isolated rat vas deferens. The assay is classed as tissue-based.
Assay [4] deals with T3, Adrenergic receptor alpha-2 (Rattus norvegicus, UniProt P22086+P19328+P22909).
T3 sequence (P22086 whole entry): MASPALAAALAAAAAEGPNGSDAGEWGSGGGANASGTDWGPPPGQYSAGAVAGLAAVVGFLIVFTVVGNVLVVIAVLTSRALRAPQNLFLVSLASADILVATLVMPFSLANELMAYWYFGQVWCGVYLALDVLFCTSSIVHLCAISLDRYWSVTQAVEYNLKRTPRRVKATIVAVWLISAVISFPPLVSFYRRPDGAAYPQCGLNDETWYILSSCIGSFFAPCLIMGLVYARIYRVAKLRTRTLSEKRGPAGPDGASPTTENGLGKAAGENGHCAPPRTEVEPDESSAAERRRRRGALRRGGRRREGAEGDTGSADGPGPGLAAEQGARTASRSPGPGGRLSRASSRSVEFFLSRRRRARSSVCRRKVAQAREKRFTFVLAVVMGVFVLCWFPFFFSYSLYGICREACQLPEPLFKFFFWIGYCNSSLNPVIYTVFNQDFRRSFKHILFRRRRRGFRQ
T3 sequence (P19328 whole entry): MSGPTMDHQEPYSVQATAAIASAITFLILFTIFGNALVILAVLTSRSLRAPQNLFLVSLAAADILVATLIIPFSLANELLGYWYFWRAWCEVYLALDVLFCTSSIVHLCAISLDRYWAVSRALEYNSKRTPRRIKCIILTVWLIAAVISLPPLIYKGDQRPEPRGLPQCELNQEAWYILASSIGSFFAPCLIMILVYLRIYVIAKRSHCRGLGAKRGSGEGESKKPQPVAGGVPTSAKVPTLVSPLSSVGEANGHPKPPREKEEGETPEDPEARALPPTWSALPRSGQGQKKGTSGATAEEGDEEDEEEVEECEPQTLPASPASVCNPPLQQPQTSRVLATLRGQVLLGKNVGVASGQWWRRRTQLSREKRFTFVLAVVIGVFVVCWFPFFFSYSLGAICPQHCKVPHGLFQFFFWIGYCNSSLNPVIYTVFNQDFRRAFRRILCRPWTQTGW
T3 sequence (P22909 whole entry): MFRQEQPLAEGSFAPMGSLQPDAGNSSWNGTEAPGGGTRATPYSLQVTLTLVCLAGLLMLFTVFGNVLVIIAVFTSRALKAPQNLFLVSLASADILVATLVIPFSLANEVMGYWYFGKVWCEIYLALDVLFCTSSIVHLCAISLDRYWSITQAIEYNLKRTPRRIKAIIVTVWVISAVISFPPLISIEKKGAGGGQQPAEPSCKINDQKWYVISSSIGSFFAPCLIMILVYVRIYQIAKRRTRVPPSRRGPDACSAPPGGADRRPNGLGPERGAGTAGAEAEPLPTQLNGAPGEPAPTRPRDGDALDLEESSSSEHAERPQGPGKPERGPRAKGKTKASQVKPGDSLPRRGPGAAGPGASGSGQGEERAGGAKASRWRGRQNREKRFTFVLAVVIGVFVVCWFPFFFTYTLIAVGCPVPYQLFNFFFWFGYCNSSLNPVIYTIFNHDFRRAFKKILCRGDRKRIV

Assay [5] has as its target Beta-2 adrenergic receptor (Bos taurus, UniProt Q28044). Description: Tested for binding affinity against beta-2 adrenergic receptor in bovine lung using [3H]DHA as radioligand.
Assay [6] deals with Beta-2 adrenergic receptor (Cavia porcellus, UniProt Q8K4Z4). Description: Inhibitory activity against beta-2 adrenergic receptor in guinea pig tracheal strip is determined.
The target of assay [7] is Beta-1 adrenergic receptor (Cavia porcellus, UniProt B0FL73).
Description: (§1) Inhibitory activity against beta-1 adrenergic receptor in guinea pig atria is determined
Assay [8] deals with T4, Adrenergic receptor alpha-2 (UniProt P08913+P18825+P18089). The conditions noted are these: Cavia porcellus; Ileum.
Description: Intrinsic activity against alpha-2 receptor in isolated guinea pig ileum
Assay [9] has as its target Beta-1 adrenergic receptor (Rattus norvegicus, UniProt P18090). The assay is described as follows: biochemical.
Description: Tested for binding affinity against beta-1 adrenergic receptor in rat brain using [3H]-CGP- 26505 as radioligand
Assay [10] concerns the target Beta-2 adrenergic receptor (Cavia porcellus) (UniProt Q8K4Z4).
The target of assay [11] is T4, Adrenergic receptor alpha-2. The conditions noted are these: Cavia porcellus; Ileum. This is another data set of the same source.
Description: Tested for alpha adrenergic activity against alpha-2 receptor from isolated guinea pig ileum
Assay [12] deals with T1, Adrenergic receptor alpha-1. The assay is described as follows: -log IC50 value against alpha-1 receptor in rat vas deferens. Format: tissue-based.
For assay [13], the target named is Beta-2 adrenergic receptor (Cavia porcellus) (UniProt Q8K4Z4). This is another data set of the same source.
Assay [14] addresses Beta-1 adrenergic receptor (Cavia porcellus) (UniProt B0FL73). The assay is described as follows: Intrinsic activity against beta-1 receptor in isolated guinea pig atria.
Assay [15] has the same target.
Description: as §1

T4 sequence (P08913 whole entry, looked up): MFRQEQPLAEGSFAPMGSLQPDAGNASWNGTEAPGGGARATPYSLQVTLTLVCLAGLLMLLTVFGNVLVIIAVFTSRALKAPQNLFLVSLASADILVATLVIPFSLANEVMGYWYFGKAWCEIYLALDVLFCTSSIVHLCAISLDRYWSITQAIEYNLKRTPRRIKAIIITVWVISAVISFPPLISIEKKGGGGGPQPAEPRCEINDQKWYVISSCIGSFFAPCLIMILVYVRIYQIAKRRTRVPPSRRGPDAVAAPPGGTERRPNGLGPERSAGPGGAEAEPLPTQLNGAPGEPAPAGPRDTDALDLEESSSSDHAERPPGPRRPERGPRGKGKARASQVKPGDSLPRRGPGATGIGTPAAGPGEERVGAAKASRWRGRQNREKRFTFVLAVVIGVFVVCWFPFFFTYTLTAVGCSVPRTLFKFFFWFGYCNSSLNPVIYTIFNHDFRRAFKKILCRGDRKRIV
T4 sequence (P18089 whole entry, looked up): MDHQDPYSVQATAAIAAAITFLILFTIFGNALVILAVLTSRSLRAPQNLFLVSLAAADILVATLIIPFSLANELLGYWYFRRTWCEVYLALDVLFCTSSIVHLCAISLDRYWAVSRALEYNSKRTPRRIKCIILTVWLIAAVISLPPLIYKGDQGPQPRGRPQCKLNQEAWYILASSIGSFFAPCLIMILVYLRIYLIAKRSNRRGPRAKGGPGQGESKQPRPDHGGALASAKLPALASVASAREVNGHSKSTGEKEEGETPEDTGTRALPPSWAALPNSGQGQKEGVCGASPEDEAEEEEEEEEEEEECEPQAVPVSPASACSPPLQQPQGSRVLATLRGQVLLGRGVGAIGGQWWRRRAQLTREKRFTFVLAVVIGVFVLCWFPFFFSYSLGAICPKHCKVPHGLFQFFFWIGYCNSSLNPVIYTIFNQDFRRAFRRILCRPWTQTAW
T4 sequence (P18825 whole entry, looked up): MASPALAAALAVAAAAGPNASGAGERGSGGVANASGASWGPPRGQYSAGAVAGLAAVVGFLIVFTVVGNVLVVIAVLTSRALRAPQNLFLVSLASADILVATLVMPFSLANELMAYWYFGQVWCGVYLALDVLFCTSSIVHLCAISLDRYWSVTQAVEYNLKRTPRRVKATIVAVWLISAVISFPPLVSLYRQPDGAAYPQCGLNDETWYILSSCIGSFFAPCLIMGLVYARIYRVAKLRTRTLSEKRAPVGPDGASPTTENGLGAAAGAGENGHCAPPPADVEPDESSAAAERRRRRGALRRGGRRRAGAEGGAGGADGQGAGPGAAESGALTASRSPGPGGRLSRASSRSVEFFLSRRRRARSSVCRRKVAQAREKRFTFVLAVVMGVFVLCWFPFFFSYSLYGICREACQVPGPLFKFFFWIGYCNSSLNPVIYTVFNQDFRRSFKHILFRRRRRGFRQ
Sequence of Beta-2 adrenergic receptor (Cavia porcellus, UniProt Q8K4Z4) (Q8K4Z4 whole entry): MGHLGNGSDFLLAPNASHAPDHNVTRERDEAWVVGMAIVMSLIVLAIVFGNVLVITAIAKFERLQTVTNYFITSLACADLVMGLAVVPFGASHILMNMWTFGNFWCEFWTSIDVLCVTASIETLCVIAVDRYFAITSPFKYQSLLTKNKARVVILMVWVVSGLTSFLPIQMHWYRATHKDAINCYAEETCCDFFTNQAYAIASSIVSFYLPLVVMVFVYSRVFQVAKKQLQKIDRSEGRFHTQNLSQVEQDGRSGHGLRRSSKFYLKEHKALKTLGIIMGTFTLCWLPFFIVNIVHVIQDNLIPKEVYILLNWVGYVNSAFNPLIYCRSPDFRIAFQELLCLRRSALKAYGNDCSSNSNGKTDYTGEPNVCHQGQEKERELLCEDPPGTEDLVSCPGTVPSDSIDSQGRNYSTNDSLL
Sequence of Beta-2 adrenergic receptor (Cavia porcellus) (Q8K4Z4 whole entry, looked up): as the sequence (Q8K4Z4 whole entry) above
Sequence of Beta-2 adrenergic receptor (Bos taurus, UniProt Q28044) (Q28044 whole entry): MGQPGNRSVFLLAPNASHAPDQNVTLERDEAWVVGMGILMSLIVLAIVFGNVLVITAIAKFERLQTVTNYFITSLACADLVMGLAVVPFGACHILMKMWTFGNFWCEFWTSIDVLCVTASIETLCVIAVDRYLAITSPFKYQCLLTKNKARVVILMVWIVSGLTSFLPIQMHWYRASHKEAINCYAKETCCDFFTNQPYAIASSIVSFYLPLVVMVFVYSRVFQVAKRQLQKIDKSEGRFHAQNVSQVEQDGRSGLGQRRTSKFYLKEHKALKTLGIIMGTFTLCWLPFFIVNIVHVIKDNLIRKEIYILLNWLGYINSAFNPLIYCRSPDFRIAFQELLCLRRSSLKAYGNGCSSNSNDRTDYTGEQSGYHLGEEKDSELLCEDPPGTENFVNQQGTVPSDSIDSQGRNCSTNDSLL
Sequence of Beta-1 adrenergic receptor (Rattus norvegicus, UniProt P18090) (P18090 whole entry): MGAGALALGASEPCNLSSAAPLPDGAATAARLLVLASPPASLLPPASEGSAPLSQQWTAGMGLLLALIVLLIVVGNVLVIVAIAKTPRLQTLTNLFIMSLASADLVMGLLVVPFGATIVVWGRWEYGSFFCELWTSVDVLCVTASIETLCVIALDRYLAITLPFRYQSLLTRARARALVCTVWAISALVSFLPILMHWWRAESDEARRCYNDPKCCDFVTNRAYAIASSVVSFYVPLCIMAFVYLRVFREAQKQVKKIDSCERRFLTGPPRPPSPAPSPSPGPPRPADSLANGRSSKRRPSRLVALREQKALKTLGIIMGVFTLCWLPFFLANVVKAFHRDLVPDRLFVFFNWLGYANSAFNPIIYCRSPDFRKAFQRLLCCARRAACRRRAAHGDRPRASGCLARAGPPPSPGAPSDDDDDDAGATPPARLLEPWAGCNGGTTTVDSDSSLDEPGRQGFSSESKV
Sequence of Beta-1 adrenergic receptor (Cavia porcellus, UniProt B0FL73) (B0FL73 whole entry): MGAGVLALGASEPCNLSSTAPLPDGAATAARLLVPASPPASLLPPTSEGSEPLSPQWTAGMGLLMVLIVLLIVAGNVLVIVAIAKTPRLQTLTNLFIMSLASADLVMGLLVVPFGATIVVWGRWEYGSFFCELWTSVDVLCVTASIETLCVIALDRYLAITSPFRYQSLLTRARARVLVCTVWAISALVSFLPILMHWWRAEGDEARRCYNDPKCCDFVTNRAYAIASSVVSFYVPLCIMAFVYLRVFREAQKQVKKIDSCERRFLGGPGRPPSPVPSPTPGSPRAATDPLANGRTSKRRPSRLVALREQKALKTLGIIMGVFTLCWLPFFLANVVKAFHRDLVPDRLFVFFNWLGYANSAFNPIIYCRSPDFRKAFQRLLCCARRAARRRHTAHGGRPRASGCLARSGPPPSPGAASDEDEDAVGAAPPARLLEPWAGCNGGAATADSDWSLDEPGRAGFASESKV
Sequence of Beta-1 adrenergic receptor (Cavia porcellus) (B0FL73 1-467): as the sequence (B0FL73 whole entry) above

With `NCC1OCCc2c1ccc(O)c2O` (stereo unspecified), the Ki in assay [1] is 42.2 µM; in assay [4], 0.0074 µM; in [5] it was 49.9 µM; in assay [9], 40.3 µM. The IA in assay [2] turned out to be 1.03; in [8], 1. The same molecule came in with a pD2 in assay [3] of 4.69. For the same molecule, the IC50 is over 316 µM in assay [6] and 66.1 µM in [7].
Regarding `CC(C)NCC(O)c1ccc(O)c(O)c1` (stereo unspecified), the IA in assay [2] was found to be 0.83; in [10], 1.
`NCC1OCCc2cc(O)c(O)cc21` (stereo unspecified): the Ki in assay [1] worked out at 60.3 µM; in [4], 1.28 µM; in assay [5] it was 28.8 µM; in assay [9], 3.45 µM. Further, the IA in assay [2] came to 0.42; in [8], 0.73. Also, the pD2 in assay [3] worked out at 3.97; in [11] it was 5.45. The concentration for half-maximal inhibition (IC50) in [6] is 30.2 µM; in [7], 6.76 µM.
For `CC(C)NCC1OCCc2c1ccc(O)c2O` (stereo unspecified), the Ki in [1] stood at 21.5 µM; in [4], 1.78 µM; in assay [5] it was 14.9 µM; in assay [9], 28.8 µM. Moreover, the “-Log IC50” value in assay [12] is on record as under 3.5. In assay [7], this molecule registered an IC50 of over 316 µM. The same molecule yielded an IA in assay [8] of 1. The pD2 in [11] is 5.26; in assay [13] it was under 3.5.
In the case of `CC(C)NCC1OCCc2cc(O)c(O)cc21` (stereo unspecified), the Ki in [1] is 26 µM; in assay [4], 4.12 µM; in assay [5], 4.9 µM; in assay [9], 1.49 µM. Further, the IC50 in assay [6] is 5.5 µM; in [7], 33.9 µM. Besides, in assay [8], the IA turned out to be 0.72. For the same molecule, the pD2 in assay [11] came out at 4.56.
For `NC[C@H](O)c1ccc(O)c(O)c1`, the IA in [2], in assay [14], in assay [8] and in [10] was 1 in each case. In addition, the pD2 is 5.12 in [3], 6.56 in [11], 6.32 in assay [15] and 6.03 in assay [13].

Broadly, the Ki is a dissociation constant, usually derived from enzyme kinetics or from competition with a known ligand. A low value points to higher affinity. Usually IC50 stands for the point on the concentration scale where inhibition reaches its midpoint. Low values mean higher potency, high ones lower potency.
